# Measured values reported in US20040234962A1, “Multicoated or multilayer entrapment matrix for protein biosensor” (priority 2003, published 2004).
# Experiment: Fluorescence intensity of NBD-GGBP-CMC in presence and absence of glucose
# Format: biochemical
# Conditions: 100 nM preparation, 20 mM glucose; FIG. 6
# Protocol: Covalent attachment was performed by activating carboxymethyl groups on the hydrogel polymer (CMC) with a mixture of N-hydroxysuccinimide (NHS) and N-ethyl-N′-(dimethylaminopropyl) carbodiimide (EDC). This forms an intermediate that is reactive to amines. NHS (100 mM) and EDC (400 mM) in water were mixed in a 1:1 vol:vol ratio. An equal volume of hydrogel polymer (25 mg/mL CMC in H2O) and the EDC/NHS mixture were combined, and incubated at room temperature for 15 to 30 minutes. The unreacted EDC and NHS were removed from the hydrogel polymer by eluting the polymer from a NAP-5 column. Varying amounts of activated hydrogel polymer were combined with the fluorescently-labeled GGBP (in this example, the NBD-A213C/L238C-GGBP-His6 mutant). The activated hydrogel polymer and protein were gently mixed, at room temperature, for 1 to 2 hours. […] An absorbance scan of solution not retained by the 100 kDa filter indicated no unattached protein remained. […] Activity of the NBD-GGBP-CMC was determined by fluorescence intensity measurement of the NBD-GGBP-CMC in the presence of high concentration glucose (20 mM) and in the absence of glucose. Thus, 100 nM preparations of the NBD-GGBP-CMC, as well as unattached NBD-GGBP (control) were measured before and after the addition of glucose (FIG. 6). […]
substance,measurement,value
NBD-GGBP-CMC: NBD-labeled GGBP randomly covalently attached to carboxymethyl cellulose hydrogel polymer via EDC/NHS,signal in the presence of glucose compared to the absence of glucose,strong signal
